Here are results for two compounds from patent publication US8426592B2, “Histone deacetylases, and uses related thereto” (President and Fellows of Harvard College, priority 1996, dated 2013).

Where two headings read alike, the source gives them in different places. Non-standard residues stand in square brackets, D forms with d. Residues, ends and D or L forms follow the SMILES beside them. Aoe = N[C@@H](CCCCCC(=O)[C@@H]1CO1)C(=O)O

For one experiment, the system named is bovine p46-p50. The experiment in a line: Binding of bovine thymus nuclear proteins to K-trap affinity matrix in presence of inhibitors, silver stained gel. As to conditions: incubation in presence of inhibitor. How it is done:
Nuclear proteins from human Jurkat T cells were prepared identically to those from bovine thymus (FIG. 1B). Molecular size standards (in kilodaltons) are indicated to the right.
K-trap was deprotected with Pd(Ph3P)4 and coupled to an activated agarose matrix (FIG. 2A). […] Bound polypeptides were eluted by boiling the matrix in 1% SDS buffer and separated b polyacrylamide gel electrophoresis.

The test system of the next experiment is trapoxin binding protein. The experiment in a line: Trapoxin binding, charcoal precipitation assay with [3H]trapoxin. As to conditions: simultaneous addition, bovine thymus extracts.
A further experiment has as its system mammalian cells. As to conditions: cited from earlier work; for gene expression and differentiation: certain mammalian cell lines; for cell cycle arrest: mammalian cells.
Experiment [1] relates to histone deacetylase. As to conditions: cited from earlier work; for histone deacetylation: cultured mammalian cells, fractioned cell extracts.
Experiment [2] concerns histone deacetylase. The experiment in a line: Histone deacetylase assay, release of [3H]acetic acid from [3H]acetylated histone H4 (1-24) peptide. Format: biochemical. As to conditions: 20 nM; crude or partially purified (Mono Q) bovine thymus nuclear enzyme; pretreatment 30 min at 4° C. The method, then:
Nuclear proteins from bovine thymus were precipitated with ammonium sulfate and fractionated on a Mono Q column. […] For the histone deacetylase assay, a peptide corresponding to bovine histone H4 (1-24) was synthesized. The peptide was chemically acetylated with sodium [^3H]acetate (5.3 Ci/mmol, New England Nuclear)/BOP reagent (Aldrich) and purified by reverse phase HPLC. Two microliters of [^3H]peptide (˜40,000 dpm) were used per […] assay. After incubation at 37° C. for one hour, the reaction was quenched with 1 M HCl/0.16 M acetic acid (50 μl). Released [^3H]acetic acid was extracted with 600 μl of ethyl acetate and quantified by scintillation counting. […] A280=absorbance at 280 n.
Briefly, thymocytes (˜12 g) prepared from fresh bovine thymus were homgenized in hypotonic lysis buffer [20 mM tris (pH 7.8), 20 mM NaCl, 1 mM EDTA, 10% glycerol, 1 mM PMSF, 1 mM benzamidine, 10 μg/ml each of pepstatin, aprotinin, and leupeptin] by mechanical disruption and the nuclei were isolated by centrifugation at 3000 g. Nuclei were resuspended in lysis buffer and the proteins were extracted with 0.4 M ammonium sulfate. The viscous lysate was sonicated and clarified by centrifugation at 100,000 g for one hour. Proteins were then precipitated with 90% saturated ammonium sulfate and recovered by centrifugation (100,000 g, one hour). […]

For the next experiment, the target named is T1, HD1 (Homo sapiens, UniProt Q13547).
T1 construct: endogenous in cells; host or cells: Jurkat T cells (nuclear extract)
T1 sequence (Q13547 whole entry): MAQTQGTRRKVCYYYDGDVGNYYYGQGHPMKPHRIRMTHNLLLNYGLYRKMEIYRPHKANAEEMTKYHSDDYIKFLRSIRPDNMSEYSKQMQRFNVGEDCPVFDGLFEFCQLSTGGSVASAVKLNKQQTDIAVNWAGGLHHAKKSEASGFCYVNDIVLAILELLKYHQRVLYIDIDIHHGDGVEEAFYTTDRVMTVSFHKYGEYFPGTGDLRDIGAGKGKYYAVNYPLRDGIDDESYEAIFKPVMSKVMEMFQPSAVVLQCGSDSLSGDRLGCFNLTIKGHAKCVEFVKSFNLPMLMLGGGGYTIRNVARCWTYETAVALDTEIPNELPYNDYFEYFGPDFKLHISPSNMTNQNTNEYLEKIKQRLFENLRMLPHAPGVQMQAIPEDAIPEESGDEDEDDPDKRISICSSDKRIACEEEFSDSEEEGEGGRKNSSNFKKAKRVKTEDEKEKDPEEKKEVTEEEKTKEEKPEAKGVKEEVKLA
T1 sequence (Q09028 2-425 partner limits assumed): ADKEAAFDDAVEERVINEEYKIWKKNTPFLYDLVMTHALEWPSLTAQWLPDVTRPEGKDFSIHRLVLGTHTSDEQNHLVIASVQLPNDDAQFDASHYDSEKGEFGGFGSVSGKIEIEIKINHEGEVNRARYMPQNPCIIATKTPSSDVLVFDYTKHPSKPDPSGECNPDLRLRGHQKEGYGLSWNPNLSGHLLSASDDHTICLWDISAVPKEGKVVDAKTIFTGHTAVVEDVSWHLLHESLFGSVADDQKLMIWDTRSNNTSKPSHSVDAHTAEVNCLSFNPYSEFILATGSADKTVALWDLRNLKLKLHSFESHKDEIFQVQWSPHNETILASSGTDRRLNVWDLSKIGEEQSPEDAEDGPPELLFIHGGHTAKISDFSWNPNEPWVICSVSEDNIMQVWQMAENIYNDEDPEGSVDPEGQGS
Put plainly: Histone deacetylase activity of anti-HD1(467-482) immunoprecipitates from Jurkat nuclear extract. As to conditions: endogenous HD1 from Jurkat crude nuclear extracts. The format is biochemical.

The next experiment concerns the target T2, HD1 and RbAp48 (Homo sapiens, UniProt Q13547).
T2 construct: endogenous in cells; host or cells: Jurkat nuclear extract (the same blot also carries bovine thymus nuclear proteins)
Put plainly: Immunoblot of proteins eluted from K-trap affinity matrix. The format is binding, bovine and human. The note with it: affinity purification in presence of inhibitor. The text has this: Proteins eluted from the K-trap affinity matrix (FIG. 2) were separated by SDS-PAGE and transferred to Immobilon-P (Millipore). Blots were probed with polyclonal anti-HD1 (319-336) or monoclonal anti-RbAp48 and bound antibodies were detected with enhanced chemiluminescence (Amersham).
To determine the relationship between the proteins from bovine thymus (p46-p50) and the proteins isolated from human Jurkat T cells (p50 and p55), an antiserum was generated against a peptide specified by the HD1 open reading frame (FIG. 3A, amino acids […]).

The target of experiment [3] is T3, recombinant FLAG epitope tagged HD1 (HD1-F) (Homo sapiens, UniProt Q13547).
T3 construct: expressed in transfected cells; host or cells: Tag Jurkat cells, electroporated with pBJ5/HD1-F
T3 sequence (Q13547 whole entry): as the sequence (Q13547 whole entry) above
Put plainly: Histone deacetylase activity of anti-FLAG immunoprecipitates of recombinant HD1-F. As to conditions: Jurkat cells transfected with pBJ5/HD1-F. The format is biochemical. The method, then: Anti-FLAG antibodies conjugated to agarose beads (IBI) were used to immunoprecipitate recombinant HD1 in the presence or absence of FLAG peptide competitor, and histone deacetylase activity was measured as described above.

Another experiment concerns the target T4, recombinant HD1-F (Homo sapiens, UniProt Q13547).
T4 construct: expressed in transfected cells; host or cells: Tag Jurkat cells, electroporated with pBJ5/HD1-F
The experiment in a line: Interaction between recombinant HD1-F and K-trap affinity matrix, immunoblot. The format is binding. As to conditions: lysates of transfected Jurkat cells. The method, then: Lysates from Jurkat cells transfected with pBJ5/HD1-F were incubated with the K-trap affinity matrix in the presence or absence of inhibitors. Immunoblots of the eluted proteins were probed with the anti-FLAG M2 monoclonal antibody (IBI).
On the technique in general: In western blotting, separated proteins are transferred to a membrane and probed.

T4 sequence (Q13547 whole entry): as above
T2 sequence (Q13547 whole entry): as above
T2 sequence (Q09028 2-425 partner): as the sequence (Q09028 2-425 partner limits assumed) above

As for `O=C1N[C@@H](Cc2ccccc2)C(=O)N2CCC[C@@H]2C(=O)N[C@@H](CCCCCC(=O)[C@@H]2CO2)C(=O)N[C@H]1Cc1ccccc1` [trapoxin] (cyclo(FF[dP][Aoe])), the “retention of bovine p46-p50 on K-trap matrix in the presence of inhibitor” value in the experiment on bovine p46-p50 was “not retained”. The “competition with [3H]trapoxin binding” value in the experiment with trapoxin binding protein was “completed”. Further, in the experiment with mammalian cells, the “gene expression and differentiation” value was “alter gene expression and induce certain mammalian cell lines to differentiate”. Further, the cell cycle arrest entry was “G1 and G2 phase cell cycle arrest” in the experiment with mammalian cells; “causes mammalian cells to arrest in the cell cycle” in the experiment on mammalian cells (listed as Trapoxin). Further, the “mode of inhibition of histone deacetylase activity” value in the experiment with histone deacetylase [1] is ““irreversible” inhibitor”. Further, the figures for the histone deacetylation entry in the experiment with histone deacetylase [1] and with histone deacetylase [1] (listed as Trapoxin) were “inhibit histone deacetylation” and “inhibits histone deacetylation in vivo”, respectively. Besides, in the experiment with histone deacetylase [2], the “histone deacetylase activity after treatment” value is recorded as “abolished deacetylase activity”.
For the compound `CC(/C=C/C(=O)NO)=C\[C@@H](C)C(=O)c1ccc(N(C)C)cc1` [trichostatin], the “histone deacetylase activity of HD1 immunoprecipitates” value on HD1 is listed as “inhibited”. Moreover, the “detection of HD1 and RbAp48 in K-trap matrix eluates” value on HD1 and RbAp48 is “neither HD1 nor RbAp48 was detected”. Besides, in the experiment on bovine p46-p50, the “retention of bovine p46-p50 on K-trap matrix in the presence of inhibitor” value was “not retained”. For the same compound, the “histone deacetylase activity of HD1-F immunoprecipitates” value in experiment [3] was “sensitive”. In the experiment with trapoxin binding protein, the “competition with [3H]trapoxin binding” value is recorded as “competed”. At recombinant HD1-F, the “competition of HD1-F interaction with K-trap affinity matrix” value is reported as “fully competed by nanomolar concentrations”. Moreover, in the experiment on mammalian cells, the “gene expression and differentiation” value was “alter gene expression and induce certain mammalian cell lines to differentiate”; the “potency relative to sodium butyrate” value is on record as “five orders of magnitude more potent”; the cell cycle arrest entry was “G1 and G2 phase cell cycle arrest”. Also, the histone deacetylation result in the experiment on histone deacetylase [1] is given as “inhibit histone deacetylation”. Also, the “histone deacetylase activity after treatment” value in the experiment with histone deacetylase [2] was “abolished deacetylase activity”.
